ChEMBL document CHEMBL1201862, “PubChem BioAssay data set” (2004)
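Step 1: Grow cells in 96-well plates. Step 2: Expose to compound for 48 hours at 5 concentrations. Step 3: Interpolate endpoints linearly; if unreached, use highest concentration. At the GI50, growth is halved.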 The source made the active and inactive calls. Rule as the data show it: active = GI50 up to about 1.1 µM and inactive = higher.

Assays:
Assay in all cases: NCI tumour cell line growth inhibition, 48 h
[1] = tested on: SF-268
[2] = tested on: RXF 393
[3] = tested on: SK-MEL-28
[4] = tested on: 786-0
[5] = tested on: UACC-257
[6] = tested on: TK-10
[7] = tested on: NCI-H226
[8] = tested on: OVCAR-3
[9] = tested on: MOLT-4
[10] = tested on: HL-60
[11] = tested on: U-251
[12] = tested on: Malme-3M
[13] = tested on: ACHN
[14] = tested on: SK-MEL-2
[15] = tested on: COLO 205

Measured: GI50

CC1=C(CO)C(=O)OC(C(C)C2CCC3C4CC5OC56C(O)C(N5CC5)=CC(=O)C6(C)C4CCC23C)C1 (stereo not given)
inactive: [1] 3.81 µM | [2] 12 µM | [3] 16 µM | [4] 5.05 µM | [5] 11.9 µM | [6] 10.1 µM | [7] 14.2 µM | [8] 3.43 µM | [9] 1.95 µM | [10] 1.61 µM | [11] 4.22 µM | [12] 12.6 µM | [13] 5.74 µM | [14] 5.73 µM

CCOC(=O)C1(C)CCC(C(C(=O)O)C(=O)O)CC1=O (stereo not given)
inactive: [1] > 100 µM | [2] > 100 µM | [3] > 100 µM | [4] > 100 µM | [15] > 100 µM | [5] > 100 µM | [6] > 100 µM | [7] > 100 µM | [8] > 100 µM | [9] > 100 µM | [10] > 100 µM | [11] > 100 µM | [12] > 100 µM | [13] > 100 µM

COc1ccc2c(c1)CC1c3c(ccc(OC)c3O)CC2N1C (stereo not given)
inactive: [1] 54.2 µM | [2] 22.6 µM | [3] 21 µM | [4] 29.1 µM | [15] 18.2 µM | [5] 23.1 µM | [6] 64.4 µM | [7] 86.1 µM | [8] 29.2 µM | [9] 23 µM | [10] 16.2 µM | [11] 25.1 µM | [12] 15.7 µM | [13] 51.5 µM | [14] 19.2 µM

O=C(CC1(O)C(=O)Nc2c(Cl)cc(Cl)cc21)c1ccc2ccccc2c1 (stereo not given)
inactive: [1] 12.2 µM | [2] 8.17 µM | [3] 10.7 µM | [4] 10.2 µM | [15] 8.79 µM | [5] 12.6 µM | [6] 14.1 µM | [8] 6.18 µM | [9] 6.24 µM | [10] 3.18 µM | [11] 6.92 µM | [12] 6.53 µM | [13] 14.4 µM | [14] 2.48 µM

CCOC(=O)NC(=O)c1c[nH]c(=O)[nH]c1=O
inactive: [3] > 100 µM | [4] > 100 µM | [15] > 100 µM | [5] > 100 µM | [6] > 100 µM | [7] > 100 µM | [8] > 100 µM | [9] > 100 µM | [10] > 100 µM | [11] > 100 µM | [12] > 100 µM | [13] > 100 µM | [14] > 100 µM

CCOC(=O)C(=O)C(C#N)c1ccc(Cl)cc1 (stereo not given)
inactive: [1] > 100 µM | [2] > 100 µM | [3] > 100 µM | [4] > 100 µM | [15] > 100 µM | [5] > 100 µM | [6] > 100 µM | [7] 62.4 µM | [8] > 100 µM | [9] > 100 µM | [10] > 100 µM | [11] > 100 µM | [12] > 100 µM | [13] > 100 µM | [14] > 100 µM

N#Cc1cccc(/C=N/N/C(N)=N/O)c1
inactive: [1] 26.3 µM | [2] 57.7 µM | [3] > 100 µM | [4] > 100 µM | [15] > 100 µM | [5] > 100 µM | [6] 37.6 µM | [7] 56.1 µM | [8] > 100 µM | [10] 15.2 µM | [11] 59.6 µM | [12] 85.1 µM | [13] 31.7 µM | [14] 72.6 µM

CCCCN(CCCC)c1c([N+](=O)[O-])c(=O)nc2ccccn12
inactive: [1] 29.3 µM | [3] 13.7 µM | [4] 34 µM | [15] 45.5 µM | [6] 46.9 µM | [7] 75.3 µM | [8] 45.8 µM | [9] 37.7 µM | [11] 38.8 µM | [12] > 100 µM | [13] 35.2 µM | [14] 31 µM

Cc1cccc(NC(=O)c2c(N)[n+]([O-])c3ccccc3[n+]2[O-])c1
inactive: [1] 7.28 µM | [2] 4.03 µM | [3] 8.05 µM | [4] 5.02 µM | [15] 13.3 µM | [5] 11.3 µM | [7] 5.66 µM | [8] 15.6 µM | [9] 4.89 µM | [10] 8.73 µM | [11] 1.78 µM | [12] 12.7 µM | [13] 16.1 µM | [14] 7.76 µM

CC[C@H](C)[C@H]1NC(=O)C(C(C)=O)=C1O
inactive: [1] 55.2 µM | [2] 23.3 µM | [3] 64 µM | [4] 98.6 µM | [15] > 100 µM | [5] 51.6 µM | [6] > 100 µM | [7] > 100 µM | [8] 72.9 µM | [9] > 100 µM | [10] 99.8 µM | [11] 52.7 µM | [12] > 100 µM | [13] > 100 µM | [14] 95.3 µM

COc1ccc(C2Oc3cc(OC)c(OC)cc3C2CCl)cc1OC (stereo not given)
inactive: [1] > 100 µM | [3] > 100 µM | [4] 56.8 µM | [15] > 100 µM | [5] > 100 µM | [6] > 100 µM | [7] > 100 µM | [8] > 100 µM | [9] > 100 µM | [10] > 100 µM | [11] > 100 µM | [12] > 100 µM | [13] > 100 µM | [14] > 100 µM

Cc1ccc(-c2cc(-c3ccccc3)c(C#N)c(=O)n2C2OC(CO)C(O)C(O)C2O)cc1 (stereo not given)
inactive: [1] > 100 µM | [2] > 100 µM | [3] > 100 µM | [4] > 100 µM | [15] > 100 µM | [5] > 100 µM | [6] > 100 µM | [7] > 100 µM | [8] > 100 µM | [9] 21.1 µM | [10] > 100 µM | [11] > 100 µM | [12] > 100 µM | [13] > 100 µM

CC(=O)NC1=C(NCc2ccc(Cl)cc2)C(=O)c2ccccc2C1=O
inactive: [1] 16.5 µM | [2] 4.24 µM | [3] 5.5 µM | [4] 8.77 µM | [15] 5.4 µM | [5] 6.17 µM | [6] 8.24 µM | [7] 9.59 µM | [8] 6.4 µM | [9] 2.38 µM | [10] 1.39 µM | [11] 6.7 µM | [12] 9.4 µM | [13] 1.84 µM | [14] 5.62 µM

COc1cc2ccc(CC#N)cc2cc1OC
inactive: [1] > 100 µM | [2] > 100 µM | [3] > 100 µM | [4] > 100 µM | [5] > 100 µM | [6] > 100 µM | [7] > 100 µM | [9] > 100 µM | [10] > 100 µM | [11] > 100 µM | [12] > 100 µM | [13] > 100 µM | [14] > 100 µM

CN(CC#N)C1CCCC[C@H]1O (stereo not given in full)
inactive: [1] > 100 µM | [2] > 100 µM | [3] > 100 µM | [4] > 100 µM | [15] > 100 µM | [5] > 100 µM | [6] > 100 µM | [7] > 100 µM | [8] > 100 µM | [9] > 100 µM | [10] > 100 µM | [11] > 100 µM | [12] > 100 µM | [13] > 100 µM | [14] > 100 µM

CC(C)N(C(=O)c1cccc(C(=O)N(C(C)C)C(C)C)c1)C(C)C
inactive: [1] > 100 µM | [3] > 100 µM | [4] > 100 µM | [15] > 100 µM | [5] > 100 µM | [6] > 100 µM | [7] > 100 µM | [8] > 100 µM | [9] > 100 µM | [10] > 100 µM | [11] > 100 µM | [12] > 100 µM | [13] > 100 µM | [14] > 100 µM

O=[N+]([O-])c1ccc(NC2OCC(O)C(O)C2O)cc1 (stereo not given)
inactive: [1] > 100 µM | [2] 43 µM | [3] > 100 µM | [4] > 100 µM | [15] > 100 µM | [5] > 100 µM | [6] > 100 µM | [7] > 100 µM | [8] > 100 µM | [9] > 100 µM | [11] > 100 µM | [12] > 100 µM | [13] > 100 µM | [14] > 100 µM

N#Cc1c2nc3ccccc3nc2n2ccc3ccccc3c12
inactive: [1] > 100 µM | [3] > 100 µM | [4] > 100 µM | [15] > 100 µM | [5] > 100 µM | [6] > 100 µM | [7] > 100 µM | [8] > 100 µM | [9] > 100 µM | [10] > 100 µM | [11] > 100 µM | [12] > 100 µM | [13] > 100 µM | [14] > 100 µM

CCOC(=O)CC(=O)ON(C)C(C)=O
inactive: [1] > 100 µM | [4] > 100 µM | [15] > 100 µM | [5] > 100 µM | [6] > 100 µM | [7] > 100 µM | [8] > 100 µM | [9] > 100 µM | [10] > 100 µM | [11] > 100 µM | [12] > 100 µM | [13] > 100 µM | [14] > 100 µM

CCC12CCCN(Cc3ccccc3)C1c1c(n(C)c3ccccc13)C(CO)C2 (stereo not given)
inactive: [1] 114 µM | [2] 72.1 µM | [3] 61 µM | [4] 44.1 µM | [15] 38 µM | [5] 48.6 µM | [6] 64.9 µM | [7] 34.3 µM | [8] 36.1 µM | [9] 22.4 µM | [10] 43.4 µM | [11] 49.3 µM | [12] 46.6 µM | [14] 55.7 µM
